Assay results reported in publication PMC12814168, “Fast, Bright, and Reversible Fluorescent Labeling of Rhodamine-Binding Proteins” (Journal of the American Chemical Society, 2025).
pKd: −log10 of the molar value. Several values for one entry are separate records, joined by “and”; a condition that tells them apart may be missing. Equal values may be shown once. Read-outs that look alike come from different tables or passages of the source.

Experiments:
Rho-tag [1] = biological target: T1, Rho-tag (Chlorobaculum tepidum, UniProt Q8KFZ1, V17Q/Q25R/S33N/E36V/H40T/K51V/F62Y/M64F/S65D/A66M/G67E/E70D/V87I/G107D/D121K/F125Y/D126E/N138A/S152V); experiment: Fluorescence polarization with 0.5-20 nM dye (0.5 nM TMR in Figure S6 titrations) and serial protein dilutions in 50 mM HEPES, 50 mM NaCl, pH 7.3 with BSA, 25 °C, N at least 3.; type: binding; conditions: SD, n = 3; read-out: K D, other Rho-tag forms and JF549
T1 construct: gene CT0179; His10-TEV, recombinant from E. coli
Description: (§1) electroporation buffer, aliquoted (12 x 50 µL) on ice, and used immediately for electroporation with 1–5 µg DNA precipitated DNA. Cells were transferred to pre-chilled 0.2 cm gap electroporation cuvettes (Bio-Rad), and electroporated using a Gene Pulser Xcell (0.54 kV, 25 µF, infinite resistance, exponential decay). Cells were recovered in 2 mL YPDS at 30 °C, shaking for 1 h and afterwards expanded in 100 mL SDCAA at 30 °C for 2 days.
(§2) YSD protein expression, staining and sorting
(§3) SGCAA medium was used for induction and cells were grown at 30 °C, 250 rpm for 20 h. […] Samples were filtered through 5 mL round-bottom tubes with cell strainer caps (Falcon) and analyzed directly by FACS. […]
(§4) PMT voltages were set based on negative controls (no protein expression). Gates were applied for FSC, SSC, and fluorescence; signals >10³ (bilirubin or rhodamine dyes) were considered positive, background ≤10². […]
(§5) regions were amplified via KOD PCR reaction using primers containing unique barcodes (NGS adaptor ligation oligos, Eurofins Genomics) analyzed by NGS sequencing (Illumina technology, Eurofins Genomics). The NGS results were analyzed using a custom-build pipeline as described previously. Alternatively, plasmid DNA was transformation into E.cloni 10G and single colonies were analyzed by Sanger sequencing (Eurofins). […]
(§6) Stopped-flow kinetic fluorescence anisotropy […]
(§7) FA: fluorescence anisotropy, B: max. […]

[2] = Spectral properties: absolute quantum yield, extinction coefficient, brightness; type: physicochemical
Description: Serially fluorophore dilutions (0 – 3 μM) were prepared in activity buffer in presence or absence […]
Measurements were performed in 200 μL volumes in clear-bottom non-binding […]
recorded on the Spark20M microplate reader (Tecan). Following baseline correction, the absorbance was plotted against the dye concentration and the data were fitted linearly. Path […]
coefficients were calculated via the Lambert-Beer law (Equation 1).
Absolute quantum yields were determined at room temperature using a Hamamatsu Quantaurus-QY spectrometer (C11347 model). Rhodamine dyes (1 μM) were tested with and without excess […]
Samples were prepared in 800 μL glass vials
Quantum yield represent as mean ± standard deviation from three technical replicates. The brightness was thereafter calculated using Equation 5. […]

variant 2 = biological target: T2, variant 2; experiment: Fluorescence intensity titration of dye (not given; JF646 by comparison with the text) with serial protein dilutions, 50 mM HEPES, 50 mM NaCl, pH 7.3 with BSA, 25 °C, n at least 3.; type: binding; conditions: SD, n = 3; read-out: KD [M] (Supplementary Table 10, replicates)
T2 construct: Rho-tag background, loop2 library hit
Source text: (§8) Supplementary Table 10 | Characterization of putative SiR-tag variants. variant sequence KD [M] TM [° C]
(§9) Binding affinity determined via fluorescence intensity. *data from single replicate. If not stated otherwise, average data and standard deviation from n ≥ 3 individual replicates. Thermostability (T M) determined via […]
(§10) Supplementary Table 11 | Plasmids deposited on Addgene
(§11) Addgene ID plasmid insert expression organism
(§12) 249667 pcDNA5/FRT/TO H2B-Rho-tag-T2A-mEGFP mammalian cells
(§13) 249668 pcDNA5/FRT/TO H2B-SiR-tag-T2A-mEGFP mammalian cells
(§14) 249669 pcDNA5/FRT/TO CD86-Rho-tag mammalian cells
(§15) 249670 pcDNA5/FRT/TO CD86-SiR-tag mammalian cells
(§16) 249671 pTol2-HuC Rho-tag-Pro30-mEGFP-NLS3x zebrafish […]
as §3, §4
(§17) regions were amplified via KOD PCR reaction using primers containing unique barcodes (NGS adaptor ligation oligos, Eurofins Genomics) analyzed by NGS sequencing (Illumina technology, Eurofins Genomics). The NGS results were analyzed using a custom-build pipeline as described previously. […]

SiR-tag = biological target: T3, SiR-tag; experiment: as above; type: binding; conditions: SD, n = 3; read-out: KD [M] (Supplementary Table 10, replicates)
T3 construct: 2 + PROSS8 background combined with P57M/F58Y/R60L and G63N/F64K/D65N/M66H; His10-TEV
Source text: as §8, §9, §10, §11, §12, §13, §14, §15, §16, §3, §4, §17

cpRho-tag = experiment: Fluorescence polarization with 0.5-20 nM dye (0.5 nM TMR in Figure S6 titrations) and serial protein dilutions in 50 mM HEPES, 50 mM NaCl, pH 7.3 with BSA, 25 °C, N at least 3.; type: binding; conditions: SD, n = 3; read-out: K D, other Rho-tag forms and JF549
Description: as §1, §2, §3, §4, §5, §6, §7

SAV2435 = biological target: T4, SAV2435 (Staphylococcus aureus, UniProt A0A0H3K0Y5); experiment: Fluorescence polarization at constant 20 nM TMR with serial protein dilutions (0-200 uM) in 50 mM HEPES, 50 mM NaCl, pH 7.3 with BSA, 25 °C, N at least 3.; type: binding; conditions: SD, n = 3
T4 construct: recombinant from E. coli, N-terminal His10-TEV (pET51b), 20 kDa
Source text: (§18) 1 Dye and candidate selection for the development of Rho-tags. A) Chemical structure of TMR and SiR and their corresponding HaloTag Ligand (HTL) derivatives. […] B) BOILED-Egg representation generated with SwissADME for molecules shown in (A). Correlation between the topological polar surface area (TPSA) and predicted water partitioning coefficient (WlogP). Gray area–predicted low passive absorption to the gastrointestinal (GI) system and limited brain access (BBB). Egg white–high probability for GI absorption. Egg yolk–high probability for BBB permeation. Blue dot–substrate is predicted to be actively exported from the central nervous system. […]
as §3, §4, §17

BABP = biological target: T5, BABP (Gallus gallus, UniProt P80226); experiment: as above; type: binding; conditions: SD, n = 3
T5 construct: gene FABP1; recombinant from E. coli, N-terminal His10-TEV (pET51b), 15 kDa
T5 sequence (P80226 2-126): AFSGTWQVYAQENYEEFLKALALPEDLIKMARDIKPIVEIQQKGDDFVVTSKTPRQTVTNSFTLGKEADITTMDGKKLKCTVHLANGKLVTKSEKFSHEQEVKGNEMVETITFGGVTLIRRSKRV
Source text: as §18, §3, §4, §17

Rho-tag [3] = biological target: T6, Rho-tag (Chlorobaculum tepidum, UniProt Q8KFZ1, A66M/D121K/D126E/E36V/E70D/F125Y/F62Y/G107D/G67E/H40T/K51V/M64F/N138A/Q25R/S152V/S33N/S65D/V17Q/V87I); experiment: Fluorescence polarization at constant 20 nM TMR-linked ligand with serial Rho-tag dilutions (0-200 uM), pH 7.3, 25 °C, three independent measurements.; type: binding; conditions: SD, n = 3
T6 construct: gene CT0179; His10-TEV, recombinant from E. coli
Description: (§19) Binding affinities KD was derived from fluorescence polarization experiments at constant dye concentration
(§20) (20 nM) and serial protein dilutions (0 – 200 µM). Average data and standard deviation from three
independent measurements (N = 3).
(§21) Biochemical and Spectral Characterization
(§22) Serial protein dilutions (0 – 200 μM) were prepared in activity buffer and transferred to black flat bottom low-volume 384-well plates (Greiner). Rhodamine dyes (0.5 – 20 nM) were added in activity buffer containing 1% (w/v) bovine serum albumin (BSA, Fraction V, Roth) using a 384-channel VIAFLO pipettor (Integra) at a 1:1 mixing ratio.
(§23) JF 646) or fluorescence polarization (FP, all other dyes) measurements were conducted on a Spark20M microplate reader (Tecan) at 25 °C in technical triplicates. Excitation and emission settings are summarized in Method Table 5.
(§24) For data processing, technical triplicates were averaged and normalized between 0 ( i.e. free dye)
(§25) and 1 (fully bound dye). The dissociation constants KD were determined by fitting a single-site
binding model (Equation 2) to the data.
(§26) at least three independent experiments (N ≥ 3), unless otherwise mentioned.
(§27) between dyes or proteins, log 10 fold changes relative to a reference e.g., parental protein were
(§28) Y: fluorescence intensity [a.u.] or fluorescence polarization [mFP], A: min. FI / FP, B: max.
(§29) protein concentration [mol/L], h: Hill coefficient, K D: dissociation constant [mol/L].

Rho-tag [4] = biological target: T1, Rho-tag; experiment: as above; type: binding; conditions: SD, n = 3; read-out: KD [µM] (Supplementary Table 4)
Description: as §19, §20
independent measurements (N = 3).
as §21, §22, §23, §24, §25
binding model (Equation 2) to the data.
as §26, §27, §28, §29

[5] = with 20 µM Rho-tag (TMR, JF549) or SiR-tag (SiR, JF646)

T1 sequence (Q8KFZ1 entry or part of it with the stated changes): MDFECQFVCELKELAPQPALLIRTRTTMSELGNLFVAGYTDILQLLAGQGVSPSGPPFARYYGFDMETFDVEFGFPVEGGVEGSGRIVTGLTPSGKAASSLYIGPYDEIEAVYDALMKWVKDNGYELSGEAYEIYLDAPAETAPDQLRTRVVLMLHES
T6 sequence (Q8KFZ1 entry or part of it with the stated changes): as above
T4 sequence (A0A0H3K0Y5 entry or part of it): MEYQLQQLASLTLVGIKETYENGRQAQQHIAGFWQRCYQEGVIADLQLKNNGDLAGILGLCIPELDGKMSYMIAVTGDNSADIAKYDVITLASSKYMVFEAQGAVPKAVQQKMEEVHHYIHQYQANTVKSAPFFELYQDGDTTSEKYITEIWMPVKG

In the case of O=C1OC2(c3ccc(N4CCC4)cc3Oc3cc(N4CCC4)ccc32)c2ccccc21 [JF549, Janelia Fluor 549 (TMR derivative)], the pKd (Rho-tag [1]) was 8.40.

With O=C1OC2(c3ccc(N4CCC4)cc3Oc3cc(N4CCC4)ccc32)c2ccccc21 [JF549] the “Absolute quantum yield Φ” value [2] was 0.844 ± 0.008, the “Brightness ε × Φ” value [2] was 128 ± 3 and the “Extinction coefficient ε” value [2] was 152 ± 22. For the same compound, the “Extinction coefficient ε” value ([2]; buffer) was 101 ± 08 M-1cm-1 × 103, the “Absolute quantum yield Φ” value ([2]; buffer (unbound dye)) was 0.842 ± 0.012 and the “Absolute quantum yield Φ” value [2, 5] was 0.87 ± 0.02 and 0.871 ± 0.018. The “Brightness ε × Φ” value [2, 5] was 105 ± 4 M-1cm-1 × 103 and the “Extinction coefficient ε” value [2, 5] was 121 ± 22 M-1cm-1 × 103.

C[Si]1(C)c2cc(N3CCC3)ccc2C2(OC(=O)c3ccccc32)c2ccc(N3CCC3)cc21 [JF646, Janelia Fluor 646 (SiR derivative)] showed a Kd (variant 2) of 9.1e-08 M and a Kd (SiR-tag) of 2e-08 M.

For C[Si]1(C)c2cc(N3CCC3)ccc2C2(OC(=O)c3ccccc32)c2ccc(N3CCC3)cc21 [JF646], the “Absolute quantum yield Φ” value [2] was 0.554 ± 0.011, the “Extinction coefficient ε” value [2] was 162 ± 12 and the “Brightness ε × Φ” value ([2]; buffer) was 051 ± 1 M-1cm-1 × 103. The “Extinction coefficient ε” value ([2]; buffer) was 106 ± 24 M-1cm-1 × 103, the “Absolute quantum yield Φ” value ([2]; buffer (unbound dye)) was 0.477 ± 0.024 and the “Absolute quantum yield Φ” value [2, 5] was 0.660 ± 0.018. For the same compound, the “Extinction coefficient ε” value [2, 5] was 152 ± 17 M-1cm-1 × 103.

For CN(C)c1ccc2c(-c3ccccc3C(=O)[O-])c3ccc(N(C)C)cc3[o+]c2c1 [TMR, tetramethylrhodamine], the “Absolute quantum yield Φ” value ([2]; HaloTag7-bound) was 0.542 ± 0.013, the “Brightness ε × Φ” value ([2]; HaloTag7-bound) was 55 ± 3 M-1cm-1 × 103 and the “Extinction coefficient ε” value ([2]; HaloTag7-bound) was 101 ± 08 M-1cm-1 × 103. The “Brightness ε × Φ” value ([2]; buffer) was 39 ± 2 M-1cm-1 × 103, the “Extinction coefficient ε” value ([2]; buffer) was 089 ± 11 M-1cm-1 × 103 and the “Absolute quantum yield Φ” value ([2]; buffer (unbound dye)) was 0.44 ± 0.01 and 0.439 ± 0.011. For the same compound, the “Absolute quantum yield Φ” value [2, 5] was 0.73 ± 0.02 and 0.728 ± 0.019, the “Brightness ε × Φ” value [2, 5] was 75 ± 1 M-1cm-1 × 103 and the “Extinction coefficient ε” value [2, 5] was 103 ± 21 M-1cm-1 × 103. For the same compound, the pKd (cpRho-tag) was 8.17, the pKd (SAV2435) was 4.77 and the pKd (BABP) was 4.47.

Work on CN(C)c1ccc2c(-c3cc(C(=O)NCCOCCOCCCCCCCl)ccc3C(=O)[O-])c3ccc(=[N+](C)C)cc-3oc2c1 [TMR-HTL, tetramethylrhodamine-6-carboxyl HaloTag Ligand] yielded a pKd (Rho-tag [3]) of 5.01.

CN(C)c1ccc2c(-c3cc(C(=O)NCCOCCOCCCCCNS(C)(=O)=O)ccc3C(=O)[O-])c3ccc(=[N+](C)C)cc-3oc2c1 [TMR-S5 (xHTL), tetramethylrhodamine-6-carboxyl exchangeable HaloTag Ligand S5] gave a Kd (Rho-tag [4]) of 18.8 µM.

With “tetramethylrhodamine-6-carboxyl SNAP-tag ligand BG (benzylguanine) [TMR-BG]” the Kd (Rho-tag [4]) was 0.4 µM.

“tetramethylrhodamine-6-carboxyl SNAP-tag ligand CP (chloropyrimidine) [TMR-CP]” showed a Kd (Rho-tag [4]) of 1.9 µM.
